Values after ≈ are worked out from the molar mass of the structure shown. Active and inactive are the calls of the source. The rule behind the calls is not given here.
Legend:
[1] = tested on: Pseudomonas aeruginosa; assay: Antibacterial activity against Pseudomonas aeruginosa MTCC 1688 assessed as growth inhibition after 24 hrs by broth dilution assay; type: functional; details: MTCC 1688, 24 h
[2] = tested on: Streptococcus pyogenes; assay: Antibacterial activity against Streptococcus pyogenes MTCC 442 assessed as growth inhibition after 24 hrs by broth dilution assay; type: functional; details: MTCC 442, 24 h
[3] = tested on: Aspergillus clavatus; assay: Antifungal activity against Aspergillus clavatus assessed as growth inhibition at 12.5 to 1000 ug/mL after 48 hrs by broth dilution assay; type: functional, organism-based
[4] = tested on: Aspergillus niger; assay: Antifungal activity against Aspergillus niger assessed as growth inhibition at 12.5 to 1000 ug/mL after 48 hrs by broth dilution assay; type: functional, organism-based
[5] = tested on: Candida albicans; assay: Antifungal activity against Candida albicans assessed as growth inhibition at 12.5 to 1000 ug/mL after 48 hrs by broth dilution assay; type: functional, organism-based
[6] = tested on: Pseudomonas aeruginosa; assay: Antibacterial activity against Pseudomonas aeruginosa MTCC 1688 assessed as growth inhibition at 12.5 to 1000 ug/mL after 24 hrs by broth dilution assay; type: functional, organism-based
[7] = tested on: Escherichia coli; assay: Antibacterial activity against Escherichia coli MTCC 443 assessed as growth inhibition at 12.5 to 1000 ug/mL after 24 hrs by broth dilution assay; type: functional, organism-based
[8] = tested on: Streptococcus pyogenes; assay: Antibacterial activity against Streptococcus pyogenes MTCC 442 assessed as growth inhibition at 12.5 to 1000 ug/mL after 24 hrs by broth dilution assay; type: functional, organism-based
[9] = tested on: Staphylococcus aureus; assay: Antibacterial activity against Staphylococcus aureus MTCC 96 assessed as growth inhibition at 12.5 to 1000 ug/mL after 24 hrs by broth dilution assay; type: functional, organism-based
[10] = tested on: Aspergillus clavatus; assay: Antifungal activity against Aspergillus clavatus assessed as growth inhibition after 48 hrs by broth dilution assay; type: functional
[11] = tested on: Aspergillus niger; assay: Antifungal activity against Aspergillus niger assessed as growth inhibition after 48 hrs by broth dilution assay; type: functional
[12] = tested on: Candida albicans; assay: Antifungal activity against Candida albicans assessed as growth inhibition after 48 hrs by broth dilution assay; type: functional
[13] = tested on: HeLa; assay: Cytotoxicity against human HeLa cells assessed as growth inhibition after 24 to 72 hrs by MTT assay; type: cell-based
[14] = tested on: Escherichia coli; assay: Antibacterial activity against Escherichia coli MTCC 443 assessed as growth inhibition after 24 hrs by broth dilution assay; type: functional; details: MTCC 443, 24 h
[15] = tested on: Staphylococcus aureus; assay: Antibacterial activity against Staphylococcus aureus MTCC 96 assessed as growth inhibition after 24 hrs by broth dilution assay; type: functional; details: MTCC 96, 24 h

Structure (SMILES) | MIC [1] | MIC [2] | MIC [10] | MIC [11] | MIC [12] | MIC [14] | MIC [15] | growth inhibition (GI) [3] | growth inhibition (GI) [4] | growth inhibition (GI) [5] | growth inhibition (GI) [6] | growth inhibition (GI) [7] | growth inhibition (GI) [8] | growth inhibition (GI) [9] | IC50 [13]
N#Cc1c(-c2ccccc2)cc(-c2nc3ccccc3[nH]2)nc1N | – | – | – | – | – | – | – | inactive | inactive | inactive | inactive | inactive | inactive | inactive | –
CC(=O)N1CCN(c2ccc(OCC3COC(Cn4ccnc4)(c4ccc(Cl)cc4Cl)O3)cc2)CC1 (stereo unspecified) [KETOCONAZOLE] | – | – | 50 µg/mL (≈ 94.1 µM) | 50 µg/mL (≈ 94.1 µM) | 50 µg/mL (≈ 94.1 µM) | – | – | – | – | – | – | – | – | – | –
N#Cc1c(-c2cccc(O)c2)cc(-c2nc3ccccc3[nH]2)nc1N1C(=O)C(Cl)C1c1ccccc1 (stereo unspecified) | 500 µg/mL (≈ 1020 µM) | 500 µg/mL (≈ 1020 µM) | 250 µg/mL (≈ 508 µM) | 500 µg/mL (≈ 1020 µM) | 250 µg/mL (≈ 508 µM) | 500 µg/mL (≈ 1020 µM) | 500 µg/mL (≈ 1020 µM) | – | – | – | – | – | – | – | 86.5 µM
COc1ccc(-c2cc(-c3nc4ccccc4[nH]3)nc(N)c2C#N)cc1 | – | – | – | – | – | – | – | inactive | inactive | inactive | inactive | inactive | inactive | inactive | –
N#Cc1c(-c2cccc([N+](=O)[O-])c2)cc(-c2nc3ccccc3[nH]2)nc1N1C(=O)C(Cl)C1c1ccccc1 (stereo unspecified) | 50 µg/mL (≈ 96 µM) | 50 µg/mL (≈ 96 µM) | 50 µg/mL (≈ 96 µM) | 50 µg/mL (≈ 96 µM) | 50 µg/mL (≈ 96 µM) | 50 µg/mL (≈ 96 µM) | 25 µg/mL (≈ 48 µM) | – | – | – | – | – | – | – | > 100 µM
N#Cc1c(-c2cccc(Cl)c2)cc(-c2nc3ccccc3[nH]2)nc1/N=C/c1ccccc1 | 1000 µg/mL (≈ 2300 µM) | 1000 µg/mL (≈ 2300 µM) | – | – | – | – | – | inactive | inactive | inactive | – | – | – | – | –
COc1ccc(-c2cc(-c3nc4ccccc4[nH]3)nc(N3C(=O)C(Cl)C3c3ccccc3)c2C#N)cc1 (stereo unspecified) | 250 µg/mL (≈ 494 µM) | 250 µg/mL (≈ 494 µM) | 500 µg/mL (≈ 988 µM) | 500 µg/mL (≈ 988 µM) | 1000 µg/mL (≈ 1980 µM) | 100 µg/mL (≈ 198 µM) | 500 µg/mL (≈ 988 µM) | – | – | – | – | – | – | – | 58.2 µM
O=C(N[C@H](CO)[C@H](O)c1ccc([N+](=O)[O-])cc1)C(Cl)Cl [CHLORAMPHENICOL] | 50 µg/mL (≈ 155 µM) | 50 µg/mL (≈ 155 µM) | – | – | – | 50 µg/mL (≈ 155 µM) | 50 µg/mL (≈ 155 µM) | – | – | – | – | – | – | – | –
N#Cc1c(-c2ccc([N+](=O)[O-])cc2)cc(-c2nc3ccccc3[nH]2)nc1N | ≥ 1000 µg/mL | ≥ 1000 µg/mL | – | – | – | – | ≥ 1000 µg/mL | – | – | – | – | – | – | – | –

More lines, main results first:

MIC [1] | MIC [2] | MIC [10] | MIC [11] | MIC [12] | MIC [14] | MIC [15] | Structure (SMILES) | growth inhibition (GI) [3] | growth inhibition (GI) [4] | growth inhibition (GI) [5] | growth inhibition (GI) [6] | growth inhibition (GI) [7] | growth inhibition (GI) [8] | growth inhibition (GI) [9] | IC50 [13]
1000 µg/mL (≈ 2250 µM) | 1000 µg/mL (≈ 2250 µM) | – | – | – | – | – | N#Cc1c(-c2ccc([N+](=O)[O-])cc2)cc(-c2nc3ccccc3[nH]2)nc1/N=C/c1ccccc1 | – | – | – | – | – | – | – | –
1000 µg/mL (≈ 2300 µM) | 1000 µg/mL (≈ 2300 µM) | – | – | – | – | – | N#Cc1c(-c2ccc(Cl)cc2)cc(-c2nc3ccccc3[nH]2)nc1/N=C/c1ccccc1 | – | – | – | – | – | – | – | –
1000 µg/mL (≈ 2040 µM) | 500 µg/mL (≈ 1020 µM) | 500 µg/mL (≈ 1020 µM) | 1000 µg/mL (≈ 2040 µM) | 500 µg/mL (≈ 1020 µM) | 250 µg/mL (≈ 510 µM) | 500 µg/mL (≈ 1020 µM) | Cc1ccccc1-c1cc(-c2nc3ccccc3[nH]2)nc(N2C(=O)C(Cl)C2c2ccccc2)c1C#N (stereo unspecified) | – | – | – | – | – | – | – | 66 µM
≥ 1000 µg/mL | ≥ 1000 µg/mL | ≥ 1000 µg/mL | ≥ 1000 µg/mL | ≥ 1000 µg/mL | – | ≥ 1000 µg/mL | N#Cc1c(-c2cccc([N+](=O)[O-])c2)cc(-c2nc3ccccc3[nH]2)nc1N | – | – | – | – | – | – | – | –
500 µg/mL (≈ 1020 µM) | 500 µg/mL (≈ 1020 µM) | 500 µg/mL (≈ 1020 µM) | 500 µg/mL (≈ 1020 µM) | 500 µg/mL (≈ 1020 µM) | 500 µg/mL (≈ 1020 µM) | 500 µg/mL (≈ 1020 µM) | N#Cc1c(-c2ccccc2O)cc(-c2nc3ccccc3[nH]2)nc1N1C(=O)C(Cl)C1c1ccccc1 (stereo unspecified) | – | – | – | – | – | – | – | 78 µM
500 µg/mL (≈ 988 µM) | 500 µg/mL (≈ 988 µM) | 250 µg/mL (≈ 494 µM) | 500 µg/mL (≈ 988 µM) | 500 µg/mL (≈ 988 µM) | 250 µg/mL (≈ 494 µM) | 500 µg/mL (≈ 988 µM) | COc1cccc(-c2cc(-c3nc4ccccc4[nH]3)nc(N3C(=O)C(Cl)C3c3ccccc3)c2C#N)c1 (stereo unspecified) | – | – | – | – | – | – | – | 64 µM
≥ 1000 µg/mL | ≥ 1000 µg/mL | ≥ 1000 µg/mL | ≥ 1000 µg/mL | ≥ 1000 µg/mL | – | ≥ 1000 µg/mL | N#Cc1c(-c2cccc(Cl)c2)cc(-c2nc3ccccc3[nH]2)nc1N | – | – | – | – | – | – | – | –
500 µg/mL (≈ 1050 µM) | 500 µg/mL (≈ 1050 µM) | 500 µg/mL (≈ 1050 µM) | 250 µg/mL (≈ 525 µM) | 500 µg/mL (≈ 1050 µM) | 250 µg/mL (≈ 525 µM) | 250 µg/mL (≈ 525 µM) | N#Cc1c(-c2ccccc2)cc(-c2nc3ccccc3[nH]2)nc1N1C(=O)C(Cl)C1c1ccccc1 (stereo unspecified) | – | – | – | – | – | – | – | 81 µM

Reference: ChEMBL document CHEMBL2429780, “Synthesis, antimicrobial and cytotoxic activity of 2-azetidinone derivatives of pyridyl benzimidazoles” (Med Chem Res, 2013)
